# Assay results taken from US6586455B1, “Treatment of liposarcomas using a combination of thiazolidinediones and retinoid X receptor selective agonists” (The Salk Institute for Biological Studies, priority 1996, dated 2003).
# Key:
# Type in all cases: cell-based
# NIH-vector cells = assay: Adipocyte differentiation, oil red O staining, NIH-vector cells; conditions: 7 days; for % lipid containing cells: range over three experiments
# Method: Simultaneous exposure of competent cells to both PPARγ and RXR-specific ligand was investigated to determine if such combination might provide a stronger adipogenic signal than a PPARγ ligand alone. The ability of the. […] It has previously been shown that wild-type NIH-3T3 cells express RXRα, but not PPARγ. NIH-vector and NIH-PPARγ cells were cultured as described in the Examples. […] After an additional four days of culture, cells were fixed and stained with oil red O. Data are presented in Table 1 as the range of morphologically recognizable differentiation observed for each line over three separate experiments.
# NIH-PPARγ cells = assay: Adipocyte differentiation, oil red O staining, NIH-3T3 fibroblasts expressing PPARγ; conditions: 7 days; for % lipid containing cells: NIH-PPARγ cells, range over three experiments
# Method: Simultaneous exposure of competent cells to both PPARγ and RXR-specific ligand was investigated to determine if such combination might provide a stronger adipogenic signal than a PPARγ ligand alone. The ability of the. […] It has previously been shown that wild-type NIH-3T3 cells express RXRα, but not PPARγ. NIH-vector and NIH-PPARγ cells were cultured as described in the Examples.
# LS857 cells = assay: Differentiation / lipid accumulation of primary human liposarcoma cells LS857; conditions: 7 days
# Method: (§1) Liposarcomas have presumably acquired one or more genetic defects that interfere with the course of normal adipocyte development. The observation that PPARγ is expressed consistently in these tumors raised the possibility that the malignant cells might be forced to complete the differentiation program by maximally activating the PPARγ pathway. To address this possibility, primary cells isolated from three human liposarcomas were cultured in vitro. Primary cell strains LS857 and LS175 were derived from well differentiated liposarcomas and LS707 was derived from an intermediate grade myxoid/round cell liposarcoma (see Table 3). High grade pleomorphic liposarcoma cells could not be expanded to sufficient numbers to permit studies of differentiation. A primary leiomyosarcoma cell line LM203 was cultured as a control. To confirm that these cultures consisted of malignant tumor-derived cells, cytogenetic analysis was performed.
# (§2) When cultured in the presence of fetal bovine serum and insulin, conditions permissive for adipocyte differentiation, all three cell lines maintain a fibroblastic morphology. LS175 cells contained small amounts of stainable lipid under these conditions. […] The degree of morphologically recognizable differentiation varied from 40% in the LS857 cells to 75% in the LS175 cells. […] This experiment was performed at least twice with each cell strain with quantitatively and qualitatively similar results.
# The ability of LG268 to promote differentiation of human liposarcoma cells was then examined. […] To further characterize the effects of PPARγ and RXR ligands on liposarcoma cells, the expression of adipocyte-specific markers were examined by Northern blotting. LS857 cells, like the tumor from which they were derived, express PPARγ mRNA. Treatment of LS857 cells with pioglitazone leads to the induction of two markers of terminal adipocyte differentiation, the MRNAs encoding aP2 and adipsin. […]
# LS175 cells = assay: Differentiation / lipid accumulation of primary human liposarcoma cells LS175; conditions: 10 μM, 7 days
# Method: as §1
# as §2, with “[…]. […]” for “This experiment was performed at least twice with each cell strain with quantitatively and qualitatively similar results.”
SMILES,% lipid containing cells (NIH-vector cells; 50 nM LG268 alone),adipogenic effect (in words) (NIH-vector cells),% lipid containing cells (NIH-PPARγ cells; 50 nM LG268 alone),"stimulation of adipocyte differentiation (in words) (NIH-PPARγ cells; confluent NIH-PPARγ cells, 50 nM LG268, 1 μM pioglitazone)","lipid accumulation, oil red O, macroscopic view of culture dishes (LS857 cells; LS857, 5 μM thiazolidinedione, 50 nM LG268, four more days of culture)","adipocyte differentiation (in words) (LS857 cells; LS857 cells, 50 nM LG268, 10 μM pioglitazone)",% lipid containing cells (NIH-vector cells; 1 μM pioglitazone alone),% lipid containing cells (NIH-PPARγ cells; 1 μM pioglitazone alone),"degree of morphologically recognizable differentiation (LS857 cells; LS857 cells, 10 μM)",degree of morphologically recognizable differentiation (LS175 cells)
"Cc1cc2c(cc1C1(c3ccc(C(=O)O)cn3)CC1)C(C)(C)CCC2(C)C [LG268, 6-[1-(8 pentamethyl-5,6,7,8-tetrahydronaphthalen-2-yl)cyclopropyl]nicotinic acid]",0%,no effect,50-65%,significant stimulation of adipocyte differentiation,significant lipid accumulation,significant degree of adipocyte differentiation,,,,
CCc1ccc(CCOc2ccc(CC3SC(=O)NC3=O)cc2)nc1 (stereo not shown) [pioglitazone],,,,,,,0%,60-70%,40%,75%
